According to patent US8569336B2, “Compounds for the treatment of inflammatory disorders” (priority 2008, dated 2013):
Read-outs that look alike come from different tables or passages of the source.

Assays:
[1] = Area under the curve determinations of plasma levels in rats (rrAUC), oral 10 mg/kg; assay type: in vivo; details: for AUC: rat, read-out: RR AUC (rapid rat AUC, rrAUC); for RR AUC (rapid rat AUC, rrAUC): blood collected 0.5-6 h post-dosing
[2] = system: TNF-α production from human whole blood; assay: Inhibition of TNF-α production from human whole blood (hWBA), LPS stimulated, ELISA; assay type: cell-based; details: Homo sapiens, TNF-α by ELISA, read-out: hWBA (IC50)
[3] = target: T1, purified catalytic domain of recombinant human TACE (rhTACEc) (Homo sapiens, UniProt P78536, N452Q/S266A); assay: TACE kinetic assay: cleavage of internally quenched peptide substrate TNF-FRET 2 (Ki); assay type: biochemical; details: TNF-FRET 2 substrate
T1 construct: 6xHis (C); made in house; host or cells: baculovirus/Hi5 insect cells
T1 sequence (P78536 215-477 S266A/N452Q): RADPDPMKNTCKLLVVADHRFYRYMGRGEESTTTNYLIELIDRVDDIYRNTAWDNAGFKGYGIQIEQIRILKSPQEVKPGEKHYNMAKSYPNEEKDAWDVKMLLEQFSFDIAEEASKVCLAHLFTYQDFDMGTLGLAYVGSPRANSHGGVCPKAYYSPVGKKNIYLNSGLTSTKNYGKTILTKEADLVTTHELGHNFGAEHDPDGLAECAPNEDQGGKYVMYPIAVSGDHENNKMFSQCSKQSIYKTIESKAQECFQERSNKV

[4] = LPS-stimulated human whole blood
[5] = 3.5 h, human whole blood diluted 1:1, LPS stimulated, 3.5 h
[6] = human whole blood diluted 1:1, LPS stimulated

Row | SMILES | AUC ([1]; plasma 0.5-6 h) [µM·h] | IC50 [2, 4] [nM] | Ki ([3]; read-out: Ki) [nM] | further results
1 | COc1ccc2c(c1F)C(=O)N(C[C@@]1(c3cc4nc(C5(C)NC(=O)NC5=O)ccc4o3)NC(=O)NC1=O)C2 (mixture of isomers) [Compound 1901] | 1.07 | 100 | 0.49 | 
2 | COc1ccc2c(c1F)C(=O)N(C[C@@]1(c3cc4cc([C@@]5(C)NC(=O)NC5=O)c(F)cc4o3)NC(=O)NC1=O)C2 (single isomer, unassigned) [Compound 1326] | 1.04 | 156 | 0.63 | 
3 | COc1ccc2c(c1F)C(=O)N(C[C@@]1(c3cc4cc([C@]5(C)NC(=O)NC5=O)c(F)cc4o3)NC(=O)NC1=O)C2 (single isomer, unassigned) [Compound 1327] | 2.97 | 161 | 0.47 | 
4 | COc1ccc2c(c1F)C(=O)N(C[C@@]1(c3cc4cnc(C)cc4o3)NC(=O)NC1=O)C2 [Compound 30] |  |  | 0.38 | AUC ([1]; plasma 0.5-6 h post-dosing): 26.3 µM·h; IC50 [2, 5]: 205 nM
5 | COc1ccc2c(c1F)C(=O)N(C[C@@]1(c3cc4cc(C)ncc4o3)NC(=O)NC1=O)C2 [Compound 305] | 19.1 | 241 | 0.64 | 
6 | CCOC(=O)N1CCc2oc([C@]3(CN4Cc5ccc(OC)cc5C4=O)NC(=O)NC3=O)cc2C1 [Compound 315] | 4.03 | 654 |  | Ki ([3]; Ki): 0.93 nM
7 | CCNC(=O)N1CCc2oc([C@]3(CN4Cc5ccc(OC)cc5C4=O)NC(=O)NC3=O)cc2C1 [Compound 320] | 0.011 | 309 | 0.4 | 
8 | COc1ccc2c(c1)C(=O)N(C[C@@]1(c3cc4c(C#N)nccc4o3)NC(=O)NC1=O)C2 [Compound 323] | 0.485 | 1240 |  | Ki ([3]; Ki): 0.7 nM
9 | COc1ccc2c(c1)C(=O)N(C[C@@]1(c3cc4cc(C5(C)NC(=O)NC5=O)cnc4o3)NC(=O)NC1=O)C2 (stereo partly shown) [Compound 500] | 1.1 | 163 | 0.695 | 
10 | COc1ccc2c(c1)C(=O)N(C[C@@]1(c3cn4ccsc4n3)NC(=O)NC1=O)C2 [Compound 502C] | 2.22 | 538 |  | Ki ([3]; Ki): 1.26 nM
11 | COc1ccc2c(c1F)C(=O)N(C[C@@]1(c3cc4cc(C5(C)NC(=O)NC5=O)cnc4o3)NC(=O)NC1=O)C2 (stereo partly shown) [Compound 504] | 3.66 | 239 | 0.758 | 
12 | COc1ccc2c(c1)C(=O)N(C[C@@]1(c3cn4cccnc4n3)NC(=O)NC1=O)C2 [Compound 750] | 0.32 | 705 |  | Ki ([3]; Ki): 1.91 nM
13 | CCN1CCN(c2ccc3oc([C@]4(CN5Cc6ccc(OCC7CC7)c(F)c6C5=O)NC(=O)NC4=O)cc3n2)CC1 [Compound 900] | 0.024 | 290 | 0.52 | 
14 | CCOc1ccc2c(c1F)C(=O)N(C[C@@]1(c3cc4nc(N5CCN(CC)CC5)ccc4o3)NC(=O)NC1=O)C2 [Compound 903] | 1 | 193 | 0.557 | 
15 | COc1ccc2c(c1)C(=O)N(C[C@@]1(c3cc4cc(-c5cn[nH]c5)c(F)cc4o3)NC(=O)NC1=O)C2 [Compound 1186] |  |  | 0.56 | AUC ([1]; plasma 0.5-6 h post-dosing): 0.285 µM·h; IC50 [2, 5]: 550 nM
16 | COc1ccc2c(c1F)C(=O)N(C[C@@]1(c3cc4cc(-c5cn[nH]c5)c(F)cc4o3)NC(=O)NC1=O)C2 [Compound 1187] |  |  | 0.23 | AUC ([1]; plasma 0.5-6 h post-dosing): 1.07 µM·h; IC50 [2, 5]: 286 nM
17 | COc1ccc2c(c1)C(=O)N(C[C@@]1(c3cc4cc(-c5ccc(N)nc5)c(F)cc4o3)NC(=O)NC1=O)C2 [Compound 1188] |  |  | 0.51 | AUC ([1]; plasma 0.5-6 h post-dosing): 0.355 µM·h; IC50 [2, 5]: 720 nM
18 | COc1ccc2c(c1)C(=O)N(C[C@@]1(c3cc4cc(C(=O)NCCN(C)C)c(F)cc4o3)NC(=O)NC1=O)C2 [Compound 1273] |  |  | 0.59 | AUC ([1]; plasma 0.5-6 h post-dosing): 0.037 µM·h; IC50 [2, 5]: 181 nM
19 | COc1ccc2c(c1F)C(=O)N(C[C@@]1(c3cc4nc(N5CCC(N(C)C)CC5)ccc4o3)NC(=O)NC1=O)C2 [Compound 1298] |  |  |  | AUC ([1]; plasma 0.5-6 h post-dosing): 0.037 µM·h; IC50 [2, 5]: 79 nM
20 | CCC1(c2cc(F)c3oc([C@]4(CN5Cc6ccc(OC)c(F)c6C5=O)NC(=O)NC4=O)cc3c2)NC(=O)NC1=O (stereo partly shown) [Compound 1305] | 1.87 | 239 | 0.77 | 

Row | SMILES | AUC ([1]; plasma 0.5-6 h) [µM·h] | IC50 [2, 4] [nM] | Ki ([3]; read-out: Ki) [nM] | further results
21 | CCC1(c2ccc3oc([C@]4(CN5Cc6ccc(OC)c(F)c6C5=O)NC(=O)NC4=O)cc3c2)NC(=O)NC1=O (stereo partly shown) [Compound 1307] | 2.01 | 204 | 0.81 | 
22 | COc1ccc2c(c1F)C(=O)N(C[C@@]1(c3cc4ncc(F)cc4o3)NC(=O)NC1=O)C2 [Compound 1311] | 14.6 | 297 | 1.18 | 
23 | COc1ccc2c(c1F)C(=O)N(C[C@@]1(c3cc4nc(C)c(F)cc4o3)NC(=O)NC1=O)C2 [Compound 1312] | 38.3 | 911 | 0.74 | 
24 | COc1ccc2c(c1F)C(=O)N(C[C@@]1(c3cc4cc(C5(C)NC(=O)NC5=O)c(F)cc4o3)NC(=O)NC1=O)C2 (stereo partly shown) [Compound 1316] | 45.7 | 104 | 1.02 | 
25 | COc1ccc2c(c1F)C(=O)N(C[C@@]1(c3cc4nc(-c5ccc(N)nc5)c(F)cc4o3)NC(=O)NC1=O)C2 [Compound 1318] | 0.863 | 87 | 0.36 | 
26 | COc1ccc2c(c1F)C(=O)N(C[C@@]1(c3cc4nc(C5=CCNCC5)c(F)cc4o3)NC(=O)NC1=O)C2 [Compound 1320] | 0.101 | 55 |  | Ki ([3]; Ki): 0.37 nM
27 | CCN1CCC(c2nc3cc([C@]4(CN5Cc6ccc(OC)c(F)c6C5=O)NC(=O)NC4=O)oc3cc2F)CC1 [Compound 1325] | 0.009 | 175 | 1 | 
28 | COc1ccc2c(c1F)C(=O)N(C[C@@]1(c3cc4nc(Cl)c(F)cc4o3)NC(=O)NC1=O)C2 [Compound 1328] | 5.61 | 2680 |  | Ki ([3]; Ki): 0.49 nM
29 | COc1ccc2c(c1F)C(=O)N(C[C@@]1(c3cc4nc(N5CCN(C)C5=O)c(F)cc4o3)NC(=O)NC1=O)C2 [Compound 1329] | 0.226 | 234 | 0.59 | 
30 | COc1ccc2c(c1F)C(=O)N(C[C@@]1(c3cc4nc(N5CC(=O)NC5=O)c(F)cc4o3)NC(=O)NC1=O)C2 [Compound 1330] | 3.19 |  |  | Ki ([3]; Ki): 0.39 nM
31 | COc1ccc2c(c1F)C(=O)N(C[C@@]1(c3cc4nc(N5CCNC5=O)c(F)cc4o3)NC(=O)NC1=O)C2 [Compound 1331] | 0.67 | 310 | 0.66 | 
32 | COc1ccc2c(c1F)C(=O)N(C[C@@]1(c3cc4nc(N5CCNC(=O)C5)ccc4o3)NC(=O)NC1=O)C2 [Compound 1700] | 0.105 |  |  | Ki ([3]; Ki): 0.6 nM
33 | COc1ccc2c(c1)C(=O)N(C[C@@]1(c3cc4nc(N(c5cn[nH]c5)C5CCN(C)CC5)ccc4o3)NC(=O)NC1=O)C2 [Compound 1703] | 0.064 |  |  | Ki ([3]; Ki): 1 nM
34 | CCCN1CCN(c2ccc3oc([C@]4(CN5Cc6ccc(OC)c(F)c6C5=O)NC(=O)NC4=O)cc3n2)CC1 [Compound 1708] | 10.4 | 175 |  | 
35 | COc1ccc2c(c1)C(=O)N(C[C@@]1(c3cc4nc(-c5ccnn5C)ccc4o3)NC(=O)NC1=O)C2 [Compound 2116] |  |  |  | AUC ([1]; plasma 0.5-6 h post-dosing): 5.19 µM·h; IC50 [2, 5]: 1200 nM
36 | COc1ccc2c(c1)C(=O)N(C[C@@]1(c3cc4nc(N5CC(C)NC(C)C5)ccc4o3)NC(=O)NC1=O)C2 (stereo partly shown) [Compound 2120] |  |  |  | AUC ([1]; plasma 0.5-6 h post-dosing): 5.19 µM·h; IC50 [2, 5]: 1200 nM
37 | COc1ccc2c(c1)C(=O)N(C[C@@]1(c3cc4nc(-c5ccc(N6CCOCC6)nc5)ccc4o3)NC(=O)NC1=O)C2 [Compound 2151] |  |  |  | AUC ([1]; plasma 0.5-6 h post-dosing): 0.692 µM·h; IC50 [2, 5]: 800 nM
38 | CCOC(=O)N1CCc2oc([C@]3(CN4Cc5ccc(OC)cc5C4=O)NC(=O)NC3=O)cc2C1 [Compound 2437] |  |  |  | RR AUC (rapid rat AUC, rrAUC) [1]: 4.026 µM·h; IC50 [2, 6]: 654 nM
39 | COc1ccc2c(c1)C(=O)N(C[C@@]1(c3cc4c(C#N)nccc4o3)NC(=O)NC1=O)C2 [Compound 2445] |  |  |  | RR AUC (rapid rat AUC, rrAUC) [1]: 0.485 µM·h; IC50 [2, 6]: 1240 nM
40 | COc1ccc2c(c1)C(=O)N(C[C@@]1(c3cc4nc(C(N)=O)ccc4o3)NC(=O)NC1=O)C2 [Compound 2457] |  |  |  | RR AUC (rapid rat AUC, rrAUC) [1]: 0.113 µM·h; IC50 [2, 6]: 200 nM
